Reference: US6355799B1, “Substituted benzene compounds, process for their preparation, and herbicidal and defoliant compositions containing them” (ISK Americas Incorporated, priority 1997, dated 2002)

Key:
Type in all cases: in vivo
[1] = test system: redroot pigweed (Amaranthus retroflexus, AMARE); assay: Pre-emerge test, greenhouse herbicide activity screening; conditions: phytotoxicity rating 0-100, 14 days after application
Procedure, shortened: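 Compounds in acetone were track-sprayed at 187 l/ha, 15–1000 g ai/ha, onto sandy loam pots. Pre-emerge seeds were sown one day before spraying, with surface watering afterwards. Post-emerge plants were at the 2–3 leaf stage and sprayed with 0.25% v/v non-ionic surfactant. Injury was rated 0–100 at 14 days.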

[2] = test system: barnyardgrass (Echinochloa crus-galli, ECHCG); assay: as above; conditions: phytotoxicity rating 0-100, 14 days after application
Procedure, shortened: (§1)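 Fourteen days after spraying, crop and weed injury was graded visually from 0, no effect, to 100, every plant dead. Test substances were dissolved in acetone and applied at 15–1000 g ai/ha with a flat-fan nozzle. Application was either pre-emergence, one day after sowing, or post-emergence at the 2–3 leaf stage.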

[3] = test system: common ragweed (Ambrosia artemisizfolia L., AMBEL); assay: as above; conditions: phytotoxicity rating 0-100, 14 days after application
Procedure, shortened: as §1

[4] = test system: green foxtail (Setaria viridis, SETVI); assay: as above; conditions: phytotoxicity rating 0-100, 14 days after application
Procedure, shortened: as §1

[5] = test system: ivyleaf morningglory (Ipomoea hederacea, IPOHE); assay: as above; conditions: phytotoxicity rating 0-100, 14 days after application
Procedure, shortened: as §1

[6] = test system: johnsongrass (Sorghum halepense, SORHA); assay: as above; conditions: phytotoxicity rating 0-100, 14 days after application
Procedure, shortened: as §1

[7] = test system: lambsquarters (Chenopodium album, CHEAL); assay: as above; conditions: phytotoxicity rating 0-100, 14 days after application
Procedure, shortened: as §1

[8] = test system: large crabgrass (Digitaria sanguinalis, DIGSA); assay: as above; conditions: phytotoxicity rating 0-100, 14 days after application
Procedure, shortened: as §1

[9] = test system: sicklepod (Cassia obtusifolia, CASOB); assay: as above; conditions: phytotoxicity rating 0-100, 14 days after application
Procedure, shortened: as §1

[10] = test system: velvetleaf (Abutilon theophrasti, ABUTH); assay: as above; conditions: phytotoxicity rating 0-100, 14 days after application
Procedure, shortened: as §1

[11] = test system: field corn (Zea mays L., var. Dekalb 535, CORN); assay: Pre-emerge test, crop safety; conditions: crop damage rating 0-100, 14 days after application
Procedure, shortened: (§2)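 Rating: 0–100 visual injury, 14 DAA. Application: acetone, 187 l/ha, 15–1000 g ai/ha, flat-fan track sprayer with nozzle 40–45 cm above soil or canopy. Post-emerge runs used 0.25% v/v surfactant on 2–3 leaf plants.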

[12] = test system: upland rice (Oryza sp., var. Tebonnet, RICE); assay: Pre-emerge test, crop safety; conditions: crop damage rating 0-100, 14 days after application
Procedure, shortened: as §2

[13] = test system: barnyardgrass (Echinochloa crus-galli, ECHCG); assay: Post-emerge test, greenhouse herbicide activity screening; conditions: post-emerge, 14 days after application, rating scale 0-100
Procedure, shortened: as §1

[14] = test system: common ragweed (Ambrosia artemisizfolia L., AMBEL); assay: as above; conditions: post-emerge, 14 days after application, rating scale 0-100
Procedure, shortened: as §1

[15] = test system: green foxtail (Setaria viridis, SETVI); assay: as above; conditions: post-emerge, 14 days after application, rating scale 0-100
Procedure, shortened: as §1

[16] = test system: ivyleaf morningglory (Ipomoea hederacea, IPOHE); assay: as above; conditions: post-emerge, 14 days after application, rating scale 0-100
Procedure, shortened: as §1

[17] = test system: johnsongrass (Sorghum halepense, SORHA); assay: as above; conditions: post-emerge, 14 days after application, rating scale 0-100
Procedure, shortened: as §1

[18] = test system: lambsquarters (Chenopodium album, CHEAL); assay: as above; conditions: post-emerge, 14 days after application, rating scale 0-100
Procedure, shortened: as §1

[19] = test system: large crabgrass (Digitaria sanguinalis, DIGSA); assay: as above; conditions: post-emerge, 14 days after application, rating scale 0-100
Procedure, shortened: as §1

[20] = test system: redroot pigweed (Amaranthus retroflexus, AMARE); assay: as above; conditions: post-emerge, 14 days after application
Procedure, shortened: as §1

[21] = test system: sicklepod (Cassia obtusifolia, CASOB); assay: as above; conditions: post-emerge, 63 g ai/ha, 14 days after application, rating scale 0-100
Procedure, shortened: as §1

[22] = test system: velvetleaf (Abutilon theophrasti, ABUTH); assay: as above; conditions: post-emerge, 14 days after application, rating scale 0-100
Procedure, shortened: as §1

[23] = test system: field corn (Zea mays L., var. Dekalb 535, CORN); assay: Post-emerge test, crop safety; conditions: post-emerge, 14 days after application, rating scale 0-100
Procedure, shortened: as §1

[24] = test system: upland rice (Oryza sp., var. Tebonnet, RICE); assay: Post-emerge test, crop safety; conditions: post-emerge, 14 days after application, rating scale 0-100
Procedure, shortened: as §1

`Cn1c(C(F)(F)F)cc(=O)n(-c2ccc(Cl)cc2NC(=O)C2CC2)c1=O` [2-204] was tested, and the “Pre-emerge Herbicidal Activity AMARE” value ([1]; 63 g ai/ha) was 100, the “Pre-emerge Herbicidal Activity AMARE” value ([1]; 250 g ai/ha) was 100 and the “Pre-emerge Herbicidal Activity ECHCG” value ([2]; 63 g ai/ha) was 20. The “Pre-emerge Herbicidal Activity ECHCG” value ([2]; 250 g ai/ha) was 70, the “Pre-emerge Herbicidal Activity AMBEL” value ([3]; 63 g ai/ha) was 50 and the “Pre-emerge Herbicidal Activity AMBEL” value ([3]; 250 g ai/ha) was 85. For the same compound, the “Pre-emerge Herbicidal Activity SETVI” value ([4]; 63 g ai/ha) was 95, the “Pre-emerge Herbicidal Activity SETVI” value ([4]; 250 g ai/ha) was 99 and the “Pre-emerge Herbicidal Activity IPOHE” value ([5]; 63 g ai/ha) was 50. The “Pre-emerge Herbicidal Activity IPOHE” value ([5]; 250 g ai/ha) was 100, the “Pre-emerge Herbicidal Activity SORHA” value ([6]; 63 g ai/ha) was 40 and the “Pre-emerge Herbicidal Activity SORHA” value ([6]; 250 g ai/ha) was 80. For the same compound, the “Pre-emerge Herbicidal Activity CHEAL” value ([7]; 63 g ai/ha) was 70, the “Pre-emerge Herbicidal Activity CHEAL” value ([7]; 250 g ai/ha) was 100 and the “Pre-emerge Herbicidal Activity DIGSA” value ([8]; 63 g ai/ha) was 35. The “Pre-emerge Herbicidal Activity DIGSA” value ([8]; 250 g ai/ha) was 100, the “Pre-emerge Herbicidal Activity CASOB” value ([9]; 63 g ai/ha) was 60 and the “Pre-emerge Herbicidal Activity CASOB” value ([9]; 250 g ai/ha) was 75. The “Pre-emerge Herbicidal Activity ABUTH” value ([10]; 63 g ai/ha) was 99, the “Pre-emerge Herbicidal Activity ABUTH” value ([10]; 250 g ai/ha) was 100 and the “Pre-emerge Herbicidal Activity CORN” value ([11]; 63 g ai/ha) was 50. For the same compound, the “Pre-emerge Herbicidal Activity CORN” value ([11]; 250 g ai/ha) was 70, the “Pre-emerge Herbicidal Activity RICE” value ([12]; 63 g ai/ha) was 0 and the “Pre-emerge Herbicidal Activity RICE” value ([12]; 250 g ai/ha) was 30. The “phytotoxicity rating ECHCG” value ([13]; 63 g ai/ha) was 0, the “phytotoxicity rating ECHCG” value ([13]; 250 g ai/ha) was 0 and the “phytotoxicity rating AMBEL” value ([14]; 63 g ai/ha) was 10. The “phytotoxicity rating AMBEL” value ([14]; 250 g ai/ha) was 70, the “phytotoxicity rating SETVI” value ([15]; 63 g ai/ha) was 0 and the “phytotoxicity rating SETVI” value ([15]; 250 g ai/ha) was 20. For the same compound, the “phytotoxicity rating IPOHE” value ([16]; 63 g ai/ha) was 30, the “phytotoxicity rating IPOHE” value ([16]; 250 g ai/ha) was 60 and the “phytotoxicity rating SORHA” value ([17]; 63 g ai/ha) was 0. The “phytotoxicity rating SORHA” value ([17]; 250 g ai/ha) was 0, the “phytotoxicity rating CHEAL” value ([18]; 63 g ai/ha) was 20 and the “phytotoxicity rating CHEAL” value ([18]; 250 g ai/ha) was 95. For the same compound, the “phytotoxicity rating DIGSA” value ([19]; 63 g ai/ha) was 0, the “phytotoxicity rating DIGSA” value ([19]; 250 g ai/ha) was 10 and the “phytotoxicity rating AMARE” value ([20]; 63 g ai/ha, rating scale 0-100 (0 no damage, 100 complete death)) was 50. The “phytotoxicity rating AMARE” value ([20]; 250 g ai/ha, rating scale 0-100) was 70, the “phytotoxicity rating CASOB” value [21] was 10 and the “phytotoxicity rating ABUTH” value ([22]; 63 g ai/ha) was 40. The “phytotoxicity rating ABUTH” value ([22]; 250 g ai/ha) was 80, the “phytotoxicity rating CORN (crop damage)” value ([23]; 63 g ai/ha) was 5 and the “phytotoxicity rating CORN (crop damage)” value ([23]; 250 g ai/ha) was 10. For the same compound, the “phytotoxicity rating RICE (crop damage)” value ([24]; 63 g ai/ha) was 0 and the “phytotoxicity rating RICE (crop damage)” value ([24]; 250 g ai/ha) was 30.
